Source: patent US20160022636A1, “PHYSIOLOGICAL LIGANDS FOR GPR139” (JANSSEN PHARMACEUTICA NV, priority 2013, published 2016)

Target: T1, GPR139 (Homo sapiens, UniProt Q6DWJ6)
T1 sequence (Q6DWJ6 1-353): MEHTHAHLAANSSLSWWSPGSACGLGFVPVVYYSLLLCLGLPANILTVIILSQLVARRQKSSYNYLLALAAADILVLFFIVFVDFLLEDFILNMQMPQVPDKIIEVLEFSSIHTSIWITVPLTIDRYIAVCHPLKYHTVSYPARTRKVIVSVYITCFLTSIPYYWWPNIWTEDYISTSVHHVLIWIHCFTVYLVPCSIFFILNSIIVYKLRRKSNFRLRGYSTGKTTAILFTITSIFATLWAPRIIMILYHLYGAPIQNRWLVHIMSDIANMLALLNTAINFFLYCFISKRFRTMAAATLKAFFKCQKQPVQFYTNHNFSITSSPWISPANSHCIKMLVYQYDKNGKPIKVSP
Assay: calcium mobilization assay (FLIPR), GPR139 transiently expressed in HEK293 cells
Format: cell-based
Set-up: expressed in transfected cells; host or cells: HEK293
Conditions: HEK293, read-out: % L-phenylalanine at 300 μM (average)
Source text: For these experiments human GPR139 was transiently expressed in HEK293 cells and calcium mobilization was stimulated using L-Trp, L-Phe or their derivatives.

Question: `N[C@@H](Cc1ccc([N+](=O)[O-])cc1[N+](=O)[O-])C(=O)O` [2,4-Dinitro-L-phenylalanine] was tested. Which activation at 300 µM did it give?
Answer: 95%

Question: With `N[C@H](Cc1ccc(Br)cc1)C(=O)O` [4-Bromo-D-phenylalanine] as the compound, how does the activation at 300 µM read?
Answer: 139%

Question: `N[C@@H](Cc1ccc(Br)cc1)C(=O)O` [4-Bromo-L-phenylalanine] was tested. Which activation at 300 µM did it give?
Answer: 153%

Same assay, conditions: HEK293; calcium mobilization at 300 μM as percentage of that observed for L-phenylalanine; read-out: % L-phenylalanine at 300 μM (average)

Question: `N[C@H](Cc1c(F)c(F)c(F)c(F)c1F)C(=O)O` [2,3,4,5,6-Pentafluoro-D-phenylalanine] was tested. Which activation at 300 µM did it give?
Answer: 145%

Question: With `N[C@H](Cc1ccc(Cl)cc1Cl)C(=O)O` [2,4-Dichloro-D-phenylalanine] as the compound, how does the activation at 300 µM read?
Answer: 135%

Question: `N[C@@H](Cc1ccc(Cl)cc1Cl)C(=O)O` [2,4-Dichloro-L-phenylalanine] was tested. Which activation at 300 µM did it give?
Answer: 122%

Question: With `Cc1ccc(C[C@@H](N)C(=O)O)c(C)c1` [2,4-Dimethyl-D-phenylalanine] as the compound, how does the activation at 300 µM read?
Answer: 101%

Question: How did the activation at 300 µM turn out when `Cc1ccc(C[C@H](N)C(=O)O)c(C)c1` [2,4-Dimethyl-L-phenylalanine] was run?
Answer: 113%

Question: How did the activation at 300 µM turn out when `N[C@H](Cc1ccccc1Br)C(=O)O` [2-Bromo-D-phenylalanine] was run?
Answer: 135%

Question: How did the activation at 300 µM turn out when `N[C@@H](Cc1ccccc1Br)C(=O)O` [2-Bromo-L-phenylalanine] was run?
Answer: 168%

Question: Which activation at 300 µM does the source give for `N[C@@H](Cc1ccccc1F)C(=O)O` [2-Fluoro-L-phenylalanine] here?
Answer: 119%

Question: With `Cc1ccccc1C[C@@H](N)C(=O)O` [2-Methyl-D-phenylalanine] as the compound, how does the activation at 300 µM read?
Answer: 109%

Question: How did the activation at 300 µM turn out when `Cc1ccccc1C[C@H](N)C(=O)O` [2-Methyl-L-phenylalanine] was run?
Answer: 134%

Question: With `N[C@@H](Cc1ccccc1[N+](=O)[O-])C(=O)O` [2-Nitro-L-phenylalanine] as the compound, how does the activation at 300 µM read?
Answer: 150%

Question: For `N[C@@H](Cc1ccccc1C(F)(F)F)C(=O)O` [2-Trifluoromethyl-L-phenylalanine], which activation at 300 µM is on record?
Answer: 110%

Question: With `N[C@H](C(=O)O)C(c1ccccc1)c1ccccc1` [3,3-Diphenyl-L-alanine] as the compound, how does the activation at 300 µM read?
Answer: 117%

Question: `N[C@H](Cc1ccc(Cl)c(Cl)c1)C(=O)O` [3,4-Dichloro-D-phenylalanine] was tested. Which activation at 300 µM did it give?
Answer: 149%

Question: Which activation at 300 µM does the source give for `N[C@@H](Cc1ccc(Cl)c(Cl)c1)C(=O)O` [3,4-Dichloro-L-phenylalanine] here?
Answer: 149%

Question: With `N[C@H](Cc1ccc(F)c(F)c1)C(=O)O` [3,4-Difluoro-D-phenylalanine] as the compound, how does the activation at 300 µM read?
Answer: 121%

Question: How did the activation at 300 µM turn out when `N[C@H](Cc1cc(F)cc(F)c1)C(=O)O` [3,5-Difluoro-D-phenylalanine] was run?
Answer: 102%

Question: How did the activation at 300 µM turn out when `N[C@H](Cc1cccc(Br)c1)C(=O)O` [3-Bromo-D-phenylalanine] was run?
Answer: 172%

Question: For `N[C@@H](Cc1cccc(Br)c1)C(=O)O` [3-Bromo-L-phenylalanine], which activation at 300 µM is on record?
Answer: 167%

Question: How did the activation at 300 µM turn out when `N[C@H](Cc1cccc(Cl)c1)C(=O)O` [3-Chloro-D-phenylalanine] was run?
Answer: 147%

Question: For `N[C@@H](Cc1cccc(Cl)c1)C(=O)O` [3-Chloro-L-phenylalanine], which activation at 300 µM is on record?
Answer: 145%

Question: How did the activation at 300 µM turn out when `N#Cc1cccc(C[C@@H](N)C(=O)O)c1` [3-Cyano-D-phenylalanine] was run?
Answer: 93%

Question: With `N#Cc1cccc(C[C@H](N)C(=O)O)c1` [3-Cyano-L-phenylalanine] as the compound, how does the activation at 300 µM read?
Answer: 115%

Question: How did the activation at 300 µM turn out when `N[C@H](Cc1cccc(F)c1)C(=O)O` [3-Fluoro-D-phenylalanine] was run?
Answer: 94%

Question: `N[C@@H](Cc1cccc(F)c1)C(=O)O` [3-Fluoro-L-phenylalanine] was tested. Which activation at 300 µM did it give?
Answer: 114%

Question: `Cc1cccc(C[C@@H](N)C(=O)O)c1` [3-Methyl-D-phenylalanine] was tested. Which activation at 300 µM did it give?
Answer: 150%

Question: For `Cc1cccc(C[C@H](N)C(=O)O)c1` [3-Methyl-L-phenylalanine], which activation at 300 µM is on record?
Answer: 147%

Question: Which activation at 300 µM does the source give for `N[C@H](Cc1cccc([N+](=O)[O-])c1)C(=O)O` [3-Nitro-D-Phenylalanine] here?
Answer: 164%

Question: Which activation at 300 µM does the source give for `N[C@@H](Cc1cccc([N+](=O)[O-])c1)C(=O)O` [3-Nitro-L-phenylalanine] here?
Answer: 131%

Question: For `N[C@@H](Cc1cccc(C(F)(F)F)c1)C(=O)O` [3-Trifluoromethyl-L-phenylalanine], which activation at 300 µM is on record?
Answer: 133%

Question: For `N[C@H](Cc1ccc(Cl)cc1)C(=O)O` [4-Chloro-D-phenylalanine], which activation at 300 µM is on record?
Answer: 110%

Question: Which activation at 300 µM does the source give for `N[C@@H](Cc1ccc(Cl)cc1)C(=O)O` [4-Chloro-L-phenylalanine] here?
Answer: 146%

Question: For `N[C@H](Cc1ccc(F)cc1)C(=O)O` [4-Fluoro-D-phenylalanine], which activation at 300 µM is on record?
Answer: 91%

Question: How did the activation at 300 µM turn out when `N[C@@H](Cc1ccc(F)cc1)C(=O)O` [4-Fluoro-L-phenylalanine] was run?
Answer: 132%

Question: Which activation at 300 µM does the source give for `N[C@H](Cc1ccc(I)cc1)C(=O)O` [4-Iodo-D-phenylalanine] here?
Answer: 125%

Question: `N[C@@H](Cc1ccc(I)cc1)C(=O)O` [4-Iodo-L-phenylalanine] was tested. Which activation at 300 µM did it give?
Answer: 116%

Question: Which activation at 300 µM does the source give for `COc1ccc(C[C@H](N)C(=O)O)cc1` [4-Methoxy-L-phenylalanine] here?
Answer: 128%

Question: How did the activation at 300 µM turn out when `Cc1ccc(C[C@@H](N)C(=O)O)cc1` [4-Methyl-D-phenylalanine] was run?
Answer: 102%

Question: With `Cc1ccc(C[C@H](N)C(=O)O)cc1` [4-Methyl-L-phenylalanine] as the compound, how does the activation at 300 µM read?
Answer: 149%

Question: How did the activation at 300 µM turn out when `N[C@H](Cc1ccc([N+](=O)[O-])cc1)C(=O)O` [4-Nitro-D-phenylalanine] was run?
Answer: 111%

Question: `N[C@@H](Cc1ccc(C(F)(F)F)cc1)C(=O)O` [4-Trifluoromethyl-L-phenylalanine] was tested. Which activation at 300 µM did it give?
Answer: 150%

Question: How did the activation at 300 µM turn out when `CC(C)(C)c1ccc(C[C@H](N)C(=O)O)cc1` [4-tert-Butyl-L-phenylalanine] was run?
Answer: 115%

Question: `CC(C)(C)OC(=O)N1Cc2ccccc2C[C@@H]1C(=O)O` [(3R)-2-tert-butoxycarbonyl-3,4-dihydro-1H-isoquinoline-3-carboxylic acid] was tested. Which activation at 300 µM did it give?
Answer: 155%

Question: How did the activation at 300 µM turn out when `N[C@H](CCCc1ccccc1)C(=O)O` [D-2-Amino-5-phenyl-pentanoic acid] was run?
Answer: 129%

Question: Which activation at 300 µM does the source give for `C[C@](N)(Cc1ccc(F)cc1)C(=O)O` [α-methyl-4-Fluoro-L-phenylalanine] here?
Answer: 125%

Same assay, conditions: calcium mobilization at 300 μM as percentage of that observed for L-phenylalanine

Question: For `N[C@H](Cc1ccc(Br)s1)C(=O)O` [2-(5-bromothienyl)-D-alanine], which “% L-phenylalanine at 300 μM (average)” value is on record?
Answer: 154%

Question: For `N[C@@H](Cc1ccc(Br)s1)C(=O)O` [2-(5-bromothienyl)-L-alanine], which “% L-phenylalanine at 300 μM (average)” value is on record?
Answer: 151%

Question: For `O=C(O)[C@@H]1Cc2c([nH]c3ccccc23)CN1` [L-1,2,3,4-tetrahydronorharman-3-carboxylic acid], which “% L-phenylalanine at 300 μM (average)” value is on record?
Answer: 151%

Question: How did the “% L-phenylalanine at 300 μM (average)” value turn out when `N[C@H](CCc1ccccc1)C(=O)O` [d-Homo-phenylalanine] was run?
Answer: 105%
